From patent publication US20050192314A1, “Urea derivatives as C-kit modulators” (Ambit Biosciences Corporation, priority 2003, published 2005)

These compounds were tested against T1, KIT(DKIN) (Homo sapiens, UniProt P10721) (assay: Binding constant (Kd) measurement, phage-displayed kinase competition binding assay: KIT(DKIN)).
T1 construct: KIT(DKIN); made in house
Excerpt: The term “ND” represents non-determined values.

T1 sequence (P10721 589-937 limits assumed): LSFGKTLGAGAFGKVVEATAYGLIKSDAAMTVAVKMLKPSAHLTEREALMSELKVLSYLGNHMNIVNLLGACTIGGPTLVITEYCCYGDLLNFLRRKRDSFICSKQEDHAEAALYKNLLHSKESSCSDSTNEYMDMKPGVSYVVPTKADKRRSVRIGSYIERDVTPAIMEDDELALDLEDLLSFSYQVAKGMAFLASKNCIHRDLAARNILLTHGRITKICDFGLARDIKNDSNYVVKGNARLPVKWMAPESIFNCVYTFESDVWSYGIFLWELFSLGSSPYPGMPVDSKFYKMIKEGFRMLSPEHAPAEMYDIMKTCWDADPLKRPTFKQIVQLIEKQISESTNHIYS

Kd [nM] | SMILES
< 100 | COC(=O)c1ccc(C(=O)Nc2ccc(NC(=O)Nc3cc(C(C)(C)C)on3)cc2)nc1 [Compound N113]
100 to 1000 | CC(C)(C)c1cc(NC(=O)Nc2ccc(OC/C=C/c3ccccc3Cl)cc2)no1 [Compound G26]
1000 to 10000 | CC(C)(C)c1cc(NC(=O)Nc2ccc(Cl)cc2Cl)no1 [Compound A7]
100 to 1000 | CC(C)(C)c1cc(NC(=O)Nc2ccc(OCc3ccc4ccccc4c3)cc2)no1 [Compound G3]
100 to 1000 | CC(C)(C)c1cc(NC(=O)Nc2ccc(NC(=O)c3ccncc3)cc2)no1 [Compound N167]
100 to 1000 | CSc1ccc(NC(=O)Nc2cc(C(C)(C)C)on2)cc1 [Compound A37]
100 to 1000 | CC(C)(C)c1cc(NC(=O)Nc2ccc(C(N)=O)cc2)no1 [Compound N86]
1000 to 10000 | Cc1nnsc1C(=O)Nc1ccc(NC(=O)Nc2cc(C(C)(C)C)on2)cc1 [Compound N18]
> 10000 | Cn1nc(C(C)(C)C)cc1NC(=O)Nc1cccc([N+](=O)[O-])c1 [Compound D21]
< 100 | CC(C)(C)c1cc(NC(=O)Nc2ccc(OCc3ccc(F)cc3)cc2)no1 [Compound G35]
100 to 1000 | Cc1ncccc1C(=O)Nc1ccc(NC(=O)Nc2cc(C(C)(C)C)on2)cc1 [Compound N145]
100 to 1000 | CC(C)(C)c1cc(NC(=O)Nc2ccc(C(=O)Nc3ccccc3)cc2)no1 [Compound N90]
100 to 1000 | CC(C)(C)c1cc(NC(=O)Nc2ccc(Oc3ccccc3)cc2)no1 [Compound A24]
< 100 | CC(C)(C)c1cc(NC(=O)Nc2ccc(OCc3c(F)cccc3F)cc2)no1 [Compound G21]
100 to 1000 | CC(C)(C)c1cc(NC(=O)Nc2ccccc2)no1 [Compound A2]
1000 to 10000 | CC(C)(C)c1cc(NC(=O)Nc2ccc(NC(=O)C3CCNCC3)cc2)no1 [Compound N150]
1000 to 10000 | CC(C)(C)c1cc(NC(=O)Nc2ccc(NC(=O)c3c(F)cccc3F)cc2)no1 [Compound N37]
100 to 1000 | CC(C)(C)c1cc(NC(=O)Nc2ccc(C(=O)NCc3ccccc3)cc2)no1 [Compound N89]
100 to 1000 | Cc1ccc(COc2ccc(NC(=O)Nc3cc(C(C)(C)C)on3)cc2)cc1 [Compound G15]
1000 to 10000 | CC(C)(C)c1cc(NC(=O)Nc2ccc(NC(=O)CC(N)c3ccccc3Cl)cc2)no1 (stereo not shown) [Compound N44]
1000 to 10000 | CC(C)(C)c1cc(NC(=O)Nc2ccc(NS(=O)(=O)c3ccccc3)cc2)no1 [Compound V1]
100 to 1000 | CC(C)(C)OC(=O)Nc1ccc(NC(=O)Nc2cc(C(C)(C)C)on2)cc1 [Compound N101]
1000 to 10000 | CC(C)(C)c1cc(NC(=O)Nc2ccc(NC(=O)C3CCCCC3)cc2)no1 [Compound N91]
100 to 1000 | CC(C)(C)c1cc(NC(=O)Nc2ccc(Cl)cc2)no1 [Compound A27]
1000 to 10000 | CN(Cc1cccc([N+](=O)[O-])c1)C(=O)Nc1cc(C(C)(C)C)on1 [Compound J3]

Kd [nM] | SMILES
100 to 1000 | CC(C)(C)c1cc(NC(=O)Nc2ccc(NC(=O)c3cc(Cl)cc(Cl)c3)cc2)no1 [Compound N29]
100 to 1000 | CC(C)(C)c1cc(NC(=O)Nc2ccc(-c3ccccc3)cc2)no1 [Compound A23]
< 100 | Cc1ccc(NC(=O)c2ccc(NC(=O)Nc3cc(C(C)(C)C)on3)cc2)cc1 [Compound N84]
100 to 1000 | Cn1nc(C(C)(C)C)cc1C(=O)Nc1ccc(NC(=O)Nc2cc(C(C)(C)C)on2)cc1 [Compound N10]
1000 to 10000 | CC(C)(C)c1cc(NC(=O)Nc2ccc(NC(=O)c3cc(Cl)nc(Cl)c3)cc2)no1 [Compound N132]
1000 to 10000 | CC(C)(C)c1cc(NC(=O)Nc2ccc(NC(=O)c3ccc(Cl)cc3Cl)cc2)no1 [Compound N130]
100 to 1000 | Cc1nn(C)c(Cl)c1C(=O)Nc1ccc(NC(=O)Nc2cc(C(C)(C)C)on2)cc1 [Compound N116]
1000 to 10000 | Cc1ccc(S(=O)(=O)Nc2ccc(NC(=O)Nc3cc(C(C)(C)C)on3)cc2)cc1 [Compound V2]
< 100 | CC(C)(C)c1cc(NC(=O)Nc2ccc(OCC3CCC3)cc2)no1 [Compound G39]
100 to 1000 | CC(C)(C)c1cc(NC(=O)Nc2ccc(OCC(O)CO)cc2)no1 (stereo not shown) [Compound G28]
1000 to 10000 | CC(C)(C)c1cc(NC(=O)Nc2ccc(NC(=O)c3c(F)cccc3C(F)(F)F)cc2)no1 [Compound N95]
100 to 1000 | COc1ccc(N(C)C(=O)Nc2cc(C(C)(C)C)on2)cc1 [Compound J10]
100 to 1000 | Cc1ccncc1C(=O)Nc1ccc(NC(=O)Nc2cc(C(C)(C)C)on2)cc1 [Compound N104]
1000 to 10000 | COc1cccc(CNC(=O)Nc2cc(C(C)(C)C)on2)c1 [Compound B3]
100 to 1000 | CC(C)(C)c1cc(NC(=O)Nc2ccc(OCc3ccc4nonc4c3)cc2)no1 [Compound G55]
100 to 1000 | CC(C)(C)c1cc(NC(=O)Nc2ccc(OCCc3ccccn3)cc2)no1 [Compound G27]
< 100 | CC(C)(C)c1cc(NC(=O)Nc2ccc(OCc3ccccc3)cc2)no1 [Compound G31]
100 to 1000 | CC(C)(C)c1cc(NC(=O)Nc2ccc(OCCc3ccc(F)cc3)cc2)no1 [Compound G24]
100 to 1000 | CC(C)(C)c1cc(NC(=O)Nc2ccc(NC(=O)c3cccnc3)cc2)no1 [Compound N1]
100 to 1000 | Cc1ccc(CNc2ccc(NC(=O)Nc3cc(C(C)(C)C)on3)cc2)cc1 [Compound O9]
< 100 | CC(C)(C)c1cc(NC(=O)Nc2ccc(OCCc3ccncc3)cc2)no1 [Compound G22]
< 100 | CCOc1ccc(NC(=O)Nc2cc(C(C)(C)C)on2)cc1 [Compound G20]
100 to 1000 | CC(C)(C)c1cc(NC(=O)Nc2ccc(NC(=O)Cc3ccccc3)cc2)no1 [Compound N35]
1000 to 10000 | CC(C)(C)c1cc(NC(=O)Nc2ccc(NC(=O)c3cnc(Cl)c(Cl)c3)cc2)no1 [Compound N123]

The remaining lines, values behind:

SMILES | Kd [nM]
CC(C)(C)c1cc(NC(=O)Nc2ccc(OCc3ccc(-c4ccccc4)cc3)cc2)no1 [Compound G56] | 100 to 1000
CC(C)(C)c1cc(NC(=O)Nc2ccc(NC(=O)c3csc(-c4ccc(Cl)cc4)n3)cc2)no1 [Compound N124] | 100 to 1000
COc1ccc(NC(=O)Nc2cc(C(F)(F)F)cc(Cl)n2)cc1 [Compound Z71] | 100 to 1000
COc1cc(C(=O)Nc2ccc(NC(=O)Nc3cc(C(C)(C)C)on3)cc2)nc2ccccc12 [Compound N137] | 100 to 1000
CC(C)(C)c1cc(NC(=O)Nc2ccc(NC(=O)c3cnnc4ccccc34)cc2)no1 [Compound N147] | 100 to 1000
CC(C)(C)c1cc(NC(=O)Nc2ccc(NC(=O)c3ccc4cccnc4n3)cc2)no1 [Compound N144] | 100 to 1000
Cn1nc(C2CC2)cc1NC(=O)Nc1ccc(OCc2ccccc2)cc1 [Compound H7] | > 10000
CC(C)(C)c1cc(NC(=O)Nc2ccc(NC(=O)c3cccc4c3OCCO4)cc2)no1 [Compound N111] | 1000 to 10000
O=C(Nc1ccc(Cl)cc1)Nc1ccc(-n2nc(Br)c(Br)c2Br)cc1 [Compound Z49] | 100 to 1000
CC(C)(C)c1cc(NC(=O)Nc2ccc(NC(=O)c3cnc4ccccc4n3)cc2)no1 [Compound N149] | 1000 to 10000
CC(C)(C)c1cc(NC(=O)Nc2ccc(NC(=O)c3nccnc3C(N)=O)cc2)no1 [Compound N138] | 100 to 1000
CC(C)(C)c1cc(NC(=O)Nc2ccc(NC(=O)c3c[nH]c(=O)nc3-c3ccncc3)cc2)no1 [Compound N19] | 1000 to 10000
O=C(Nc1ccno1)Nc1ccc(Cl)cc1Cl [Compound Z12] | 1000 to 10000
CC(C)(C)c1cc(N2CCCN(c3ccc(OCc4ccccc4)cc3)C2=O)on1 [Compound E2] | 1000 to 10000
CC(C)(C)c1cc(NC(=O)Nc2ccc(OCc3ccccc3)cc2)on1 [Compound G30] | 100 to 1000
COc1ccc(-c2cc(C(=O)Nc3ccc(NC(=O)Nc4cc(C(C)(C)C)on4)cc3)c(C)o2)cc1 [Compound N118] | 1000 to 10000
CC(C)(C)c1cc(NC(=O)Nc2ccc(OCc3ccccc3-c3ccccc3)cc2)no1 [Compound G8] | 1000 to 10000
Cc1ccc(-n2nc(C(C)(C)C)cc2NC(=O)Nc2ccc(OCCN3CCOC(CO)C3)c3ccccc23)cc1 (stereo not shown) [Compound G38] | 100 to 1000

SMILES | Kd [nM]
Cc1ccc(-n2nc(C(C)(C)C)cc2NC(=O)Nc2ccc(Cl)cc2)cc1 [Compound H14] | 1000 to 10000
CC(C)(C)c1cc(NC(=O)Nc2ccc(NC(=O)c3ccc(Cl)nc3)cc2)no1 [Compound N125] | 1000 to 10000
CC(C)(C)c1cc(NC(=O)Nc2ccc(NC(=O)Cc3csc4ccccc34)cc2)no1 [Compound N107] | 1000 to 10000
CC(C)(C)c1cc(NC(=O)Nc2ccc(NC(=O)c3ccc4ncccc4c3)cc2)no1 [Compound N151] | 100 to 1000
Cn1c(SCC(=O)Nc2ccc(NC(=O)Nc3cc(C(C)(C)C)on3)cc2)nnc1-c1cccn(Cc2ccccc2)c1=O [Compound Z47] | 100 to 1000
Cn1nc(-c2ccccc2)c2cc(C(=O)Nc3ccc(NC(=O)Nc4cc(C(C)(C)C)on4)cc3)sc21 [Compound N5] | 100 to 1000
CC(C)(C)c1cc(NC(=O)Nc2ccc(OCc3ccccc3C(F)(F)F)cc2)no1 [Compound G4] | 100 to 1000
CSc1ccc(NC(=O)Nc2cc(C(C)(C)C)no2)cc1 [Compound A39] | 100 to 1000
O=C(Nc1ccc(Cl)cc1)Nc1cc(C(F)(F)F)cc(Cl)n1 [Compound Z76] | 100 to 1000
CC(C)(CO)c1cc(NC(=O)Nc2ccc(Cl)cc2)on1 [Compound A22] | 1000 to 10000
CC(C)(C)c1cc(NC(=O)Nc2ccc(NC(=O)c3cccc4nsnc34)cc2)no1 [Compound N109] | 100 to 1000
CC(C)Oc1ccc(NC(=O)Nc2cc(C(C)(C)C)no2)cc1 [Compound G33] | < 100
C=C/C(=C\C=C\Cl)NC(=O)Nc1ccc(C(=O)OCCOC)cc1 [Compound Z54] | 1000 to 10000
CC(C)(C)c1cc(NC(=O)Nc2ccc(NC(=O)c3cnc4cc(C(F)(F)F)ccc4c3O)cc2)no1 [Compound N146] | 1000 to 10000
CC(C)(C)c1cc(NC(=O)Nc2ccc(NC(=O)C(N)Cc3ccccc3F)cc2)no1 (stereo not shown) [Compound N42] | 1000 to 10000
NC(=O)c1c(NC(=O)Nc2ccc(Cl)c(Cl)c2)sc2c1CCCC2 [Compound Z56] | > 10000
CC(C)(C)c1cc(NC(=O)Nc2ccc(OCCN3CCSCC3)cc2)no1 [Compound G53] | 1000 to 10000
CC(C)(C)c1cc(NC(=O)Nc2ccc(OCc3ccc(C(F)(F)F)cc3)cc2)no1 [Compound G6] | 100 to 1000
